From patent US7402388B2, “Expression analysis of FKBP54 in assessing prostate cancer therapy” (Wyeth, priority 2000, dated 2008)
Where two headings read alike, the source gives them in different places.

B1: FKBP54: member of the immunophilin family, FK binding protein; transfected as expression vector encoding FKBP54 (protein, UniProt Q13451 1-457, looked up)
Peptidyl-prolyl cis-trans …: MTTDEGAKNNEESPTATVAEQGEDITSKKDRGVLKIVKRVGNGEETPMIGDKVYVHYKGKLSNGKKFDSSHDRNEPFVFSLGKGQVIKAWDIGVATMKKGEICHLLCKPEYAYGSAGSLPKIPSNATLFFEIELLDFKGEDLFEDGGIIRRTKRKGEGYSNPNEGATVEIHLEGRCGGRMFDCRDVAFTVGEGEDHDIPIGIDKALEKMQREEQCILYLGPRYGFGEAGKPKFGIEPNAELIYEVTLKSFEKAKESWEMDTKEKLEQAAIVKEKGTVYFKGGKYMQAVIQYGKIVSWLEMEYGLSEKESKASESFLLAAFLNLAMCYLKLREYTKAVECCDKALGLDSANEKGLYRRGEAQLLMNEFESAKGDFEKVLEVNPQNKAARLQISMCQKKAKEHNERDRRIYANMFKKFAEQDAKEEANKAMGKKTSEGVTNEKGTDSQAMEEEKPEGHV

Experiments:
LNCaP cells = details: MTT assay, FIG. 1A
Method: (§1) Human prostatic cancer cell lines LNCaP, DU-145, PC-3, and Tsu-prl were obtained from ATCC. LNCaP cancer cells were maintained in humidified atmosphere of 5% CO2 in air in RPMI 1640 medium supplemented with 10% fetal calf serum (Life Technologies, Inc, Rockville, Md.), 3 mM L-glutamine, 100 μg/ml streptomycin and 100 units/ml penicillin. Other lines were maintained in DMEM containing 3 mM L-glutamine, 100 μg/ml streptomycin, 100 units/ml penicillin, and 10% FCS in humidified atmosphere of 5% CO2. To examine the effects of steroids, cells were cultured in RPMI 1640 medium containing 5% FCS treated with dextran coated charcoal (Hyclone, Logan, Utah) for 24 hs before treatment. Cells were grown in the absence or presence of 10 nM DHT for 0, 2, 4, 6, 12, 24, 48, and 72 hs. They were collected and frozen at each time point. Two hundred μl of medium were collected from each flask for PSA assay.
To verify the effect of DHT on the growth of LNCaP cells, cells at 3,000 cells/well were plated in 96-well plates for 24 hs before treatment with DHT. After 72 hs, MTT was added to each well and incubated at 37° C. for four hs. At the end of incubation, the supernatant was removed and 100 μl DMSO was added to each well to dissolve […]. Plates were subsequently read in a plate reader at […].

FKBP54 [1] = details: LNCaP cells, 10 nM DHT, mRNA frequency
Method: as §1

FKBP54 [2] = test: Western blot analysis of FKBP54 protein in LNCaP cells; assay type: cell-based, human
Method: For Western blot analysis, LNCaP cells were plated in 6-well plate at 1×10^6 cells/well in charcoal stripped serum containing medium. Cells were treated with 10 nM DHT and harvested at designated time. Cells were harvested in MPER reagent (Pierce, Rockford, Ill.) containing 400 mM NaCl. […] The PVDF membrane was incubated in TBST (TBS with 0.1% Tween-20) with 3% milk for 15 minutes before the addition of the first antibody, rabbit anti-FKBP54 (Affinity Bioreagents, Inc). After overnight incubation, the PVDF membrane was washed 3 times with TBST and incubated with a second antibody, anti-rabbit-IgG coupled with horseradish peroxidase (Transduction Labs) for one hour. The PVDF membrane was then washed 3 times with TBST and protein was detected by using an enhanced chemiluminescence detection system (Pierce).

PSA [3] = tested on: PSA
PSA [4] = details: LNCaP cells, 10 nM DHT, mRNA frequency
prostate cancer cells = test: Sensitivity of prostate cancer cells to CCI-779; assay type: cell-based; details: some prostate cancer cells, data not shown
androgen receptor (AR) = test: Transient transfection of COS-1 cells, GREe1bLuc luciferase reporter of AR transcriptional activity; assay type: cell-based; details: COS-1 cells transfected with FKBP54 expression vector
Method: Bars represent the mean of at least three independent experiments±SD. To determine the effect of FKBP54 on the transcriptional activity of androgen receptor (AR), COS-1 cells were transiently transfected with a reporter construct containing androgen receptor response element along with an expression vector encoding FKBP54. […] The next morning, medium were replaced with 2-ml DMEM. Indicated amount of DNA in 100 μl of DMEM was mixed with 6 μl of PLUS reagent (Gibco) and incubated at room temperature while 4 μl of lipofectamine was mixed with 100 μl of DMEM. […] After incubation with DNA for 4 hours, 2 ml of phenol red-free DMEM containing 10% charcoal-stripped fetal bovine serum was added and cells treated with indicated chemicals for additional 24 hours before being harvested. Luciferase activity was determined using Promega's STEADY GLO™ Luciferase Assay System.

Molecule	FKBP54 protein expression (Western blot, blot not shown) (FKBP54 [2])	increase in level of FKBP54 expression (FKBP54 [2]; 24 hours post exposure)	increase in level of FKBP54 expression (FKBP54 [2]; 72 hours post exposure)	Quantitative Expression Levels of FKBP54 (band density values) (FKBP54 [2]; time 0 hr)	Quantitative Expression Levels of FKBP54 (band density values) (FKBP54 [2]; time 2 hr)	Quantitative Expression Levels of FKBP54 (band density values) (FKBP54 [2]; time 6 hr)	Quantitative Expression Levels of FKBP54 (band density values) (FKBP54 [2]; time 12 hr)	Quantitative Expression Levels of FKBP54 (band density values) (FKBP54 [2]; time 24 hr)	Quantitative Expression Levels of FKBP54 (band density values) (FKBP54 [2]; time 48 hr)	Quantitative Expression Levels of FKBP54 (band density values) (FKBP54 [2]; time 72 hr)	other results
C[C@]12CCC(=O)C[C@@H]1CC[C@@H]1[C@@H]2CC[C@]2(C)[C@@H](O)CC[C@@H]12 [DHT, dihydrotestosterone]	upregulated the FKB54 expression in a time-dependent manner	approximately two-fold	approximately 4 fold	8.5	9.0	9.8	8.0	12.0	23.0	30.2	growth of LNCaP cells (LNCaP cells): stimulated by a natural androgen DHT in a dose-dependent manner; FKBP54 expression induction relative to baseline (FKBP54 [1]; 6 hours): 2 fold; FKBP54 expression induction relative to baseline (peak) (FKBP54 [1]; 24 hours): approximately 4 fold; PSA production (PSA [3]): increased in a dose-dependent manner; time at which PSA signal was first detected (PSA [3]): 12 h; time of maximal PSA level (PSA [3]): about 48 hs; PSA expression increase relative to control (PSA [4]; 12 hours): 3 fold; PSA expression increase relative to control (PSA [4]; 72 hours): approximately 4 fold
CO[C@H]1C[C@@H]2CC[C@@H](C)[C@@](O)(O2)C(=O)C(=O)N2CCCC[C@H]2C(=O)O[C@H]([C@H](C)C[C@@H]2CC[C@@H](OC(=O)C(C)(CO)CO)[C@H](OC)C2)CC(=O)[C@H](C)/C=C(\C)[C@@H](O)[C@@H](OC)C(=O)[C@H](C)C[C@H](C)/C=C/C=C/C=C/1C [CCI-779]	–	–	–	–	–	–	–	–	–	–	sensitivity of prostate cancer cells (prostate cancer cells): sensitive
C[C@]1(O)CC[C@H]2[C@@H]3CCC4=CC(=O)CCC4=C3C=C[C@@]21C [R1881]	could also upregulate the FKBP54 expression	~10 fold	approximately 30 fold	1.8	5.3	5.9	5.0	20.1	27.2	34.4	–
B1	–	–	–	–	–	–	–	–	–	–	increase of AR activity (androgen receptor (AR); in the presence of androgen (10^-9 M R1881)): more than 30%; effect on the reporter activity (androgen receptor (AR); without androgen): no effect
